Values joined by “and” are separate entries in the source; they are usually repeats but may differ in a detail not shown here. Identical values can stand only once. “Also recorded” adds a separate entry of the source. Starred links: 1 amine or outer side, 2 acyl side, 3 side chain; linkers in the order of their positions; H or OH if unused. Non-standard residues stand in square brackets, D forms with d. Residues, ends and D or L forms follow the SMILES beside them. *: point of attachment. Dolaproine = CO[C@@H]([C@@H]1CCCN1)[C@@H](C)C(=O)O; Dil = CC[C@H](C)[C@H](NC)[C@@H](CC(=O)O)OC; PABC = O=C(OCc1ccc(N[*:1])cc1)[*:2]; X1 = O=C(CCCC(=O)*)ON1C(=O)CCC1=O; X2 = C[C@@H](N*)[C@@H](O)c1ccccc1; Cit = NC(=O)NCCC[C@H](N)C(=O)O; NMeV = CN[C@H](C(=O)O)C(C)C
System: PC-3 xenograft
Test: In vivo efficacy in PC-3 xenograft, female BALB/c nude mice (Example 2)
Parameters: species or system Mus Musculus
Procedure: The objective of the research was to evaluate the in vivo anti-tumor efficacy of BT5528 and BCY10188 in treatment of PC-3 xenograft model in BALB/c nude mice.
Each mouse was inoculated subcutaneously at the right flank with PC-3 tumor cells ([…]) in 0.2 ml of PBS for tumor development. 60 animals were randomized when the average tumor volume reached 464 mm^3. The test article administration and the animal numbers in each group were shown in the experimental design table.
1) 0.1 mg/mL solution (with 50 mM Acetate 10% sucrose pH 5 buffer) was prepared before the operation. 2) The syringe loaded with dosing solution was fixed on the Syringe Pump Machine, then a needle was bound to the pipe jointed with the syringe. 3) The injection volume (10 ml/kg, calculated based on the bodyweight), injection time (1 h for this study), and infusion rate was set to the Pump, then a quick running was conducted to check the working condition of the whole system. 4) The mouse was fixed comfortably, then the operator injected the syringe needle into the caudal vein, and fixed the mouse tail as well as the needle firmly and stably(no need anesthesia for less than 1 h) 5) Then the infusion was started, and the operator kept monitoring the dosing condition till the end.
1) 0.130 mg/mL solution (with 50 mM Acetate 10% sucrose pH 5 buffer) was prepared before the operation. 2) The pump was fully filled with the dosing solution (˜200 μl, see the hand book of the Alzet pump 2001D). 3) The animal in group 12 was anesthetized with 80 mg/kg pentobarbital sodium, and the pump was embedded under the skin of left side of mouse. 4) 26 h later, the animals were anesthetized with pentobarbital sodium, and the pump was taken out. (The infusion rate is not stable at the first 1-3 h, thus the pump was taken out at 26 h instead of 24 h to ensure that all solution was pumped-out).
The major endpoint was to see if the tumor growth could be delayed or mice could be cured. Tumor volume was measured 3 times per week in two dimensions using a caliper, and the volume was expressed in mm^3 using the formula: V=0.5 a×b^2 where a and b are the long and short diameters of the tumor, respectively. The tumor size was then used for calculations of T/C value. The T/C value (in percent) is an indication of antitumor effectiveness; T and C are the mean volumes of the treated and control groups, respectively, on a given day.
TGI was calculated for each group using the formula: TGI (%)=[1−(Ti−T0)/(Vi−V0)]×100; Ti is the average tumor volume of a treatment group on a given day, T0 is the average tumor volume of the treatment group on the day of treatment start, Vi is the average tumor volume of the vehicle control group on the same day with Ti, and V0 is the average tumor volume of the vehicle group on the day of treatment start.
Tumor growth inhibition rate of BT5528 and BCY10188 in the PC-3 xenograft model was calculated based on tumor volume measurements on day 17 after the start of treatment.

[1] = 1 mpk iv 1 h infusion qw*2 weeks, day 17
[2] = 1 mpk sc 24 h minipump qw*2 weeks, day 17

SMILES: CC[C@H](C)[C@@H]([C@@H](CC(=O)N1CCC[C@H]1[C@H](OC)[C@@H](C)C(=O)N[C@H](C)[C@@H](O)c1ccccc1)OC)N(C)C(=O)[C@@H](NC(=O)[C@H](C(C)C)N(C)C(=O)OCc1ccc(NC(=O)[C@H](CCCNC(N)=O)NC(=O)[C@@H](NC(=O)CCCC(=O)ON2C(=O)CCC2=O)C(C)C)cc1)C(C)C [BT5528] (X1-V[Cit][PABC][NMeV]V[Dil][Dolaproine]-X2)
- tumor relapse after ceasing the treatment (1 mg/kg qw*2 weeks via intravenous bolus, intravenous infusion or subcutaneous ALZET pump): obvious relapse 2 weeks later after ceasing the treatment
- efficacy across dosing paradigms (1 mg/kg, iv bolus (QW×2 and QW×4), 1 h iv infusion (QW×2), 24 h subcutaneous osmotic pump (QW×2)): equivalent efficacy with a wide range of dosing paradigms; also recorded: comparable anti-tumor activity
- Tumor volume (0.11 mpk iv qw*4 weeks, day 0): 463 mm^3
- Tumor volume (0.11 mpk iv qw*4 weeks, day 2): 634 mm^3
- Tumor volume (0.11 mpk iv qw*4 weeks, day 4): 725 mm^3
- Tumor volume (0.11 mpk iv qw*4 weeks, day 6): 861 mm^3
- Tumor volume (0.11 mpk iv qw*4 weeks, day 8): 1172 mm^3
- Tumor volume (0.11 mpk iv qw*4 weeks, day 10): 1247 mm^3
- Tumor volume (0.11 mpk iv qw*4 weeks, day 13): 1333 mm^3
- Tumor volume (0.11 mpk iv qw*4 weeks, day 15): 1568 mm^3
- T/C (0.11 mpk iv qw*4 weeks, day 17): 88.1%
- TGI (0.11 mpk iv qw*4 weeks, day 17): 15.3%
- Tumor volume (0.11 mpk iv qw*4 weeks, day 17): 1780 mm^3 and 1780 ± 116 mm^3
- Tumor volume (0.33 mpk iv qw*4 weeks, day 0): 463 mm^3
- Tumor volume (0.33 mpk iv qw*4 weeks, day 2): 597 mm^3
- Tumor volume (0.33 mpk iv qw*4 weeks, day 4): 530 mm^3
- Tumor volume (0.33 mpk iv qw*4 weeks, day 6): 525 mm^3
- Tumor volume (0.33 mpk iv qw*4 weeks, day 8): 584 mm^3
- Tumor volume (0.33 mpk iv qw*4 weeks, day 10): 536 mm^3
- Tumor volume (0.33 mpk iv qw*4 weeks, day 13): 493 mm^3
- Tumor volume (0.33 mpk iv qw*4 weeks, day 15): 544 mm^3
- T/C (0.33 mpk iv qw*4 weeks, day 17): 23.9%
- TGI (0.33 mpk iv qw*4 weeks, day 17): 98.8%
- Tumor volume (0.33 mpk iv qw*4 weeks, day 17): 482 mm^3 and 482 ± 22 mm^3
- Tumor volume (1 mpk iv 1 h infusion qw*2 weeks, day 0): 463 mm^3
- Tumor volume (1 mpk iv 1 h infusion qw*2 weeks, day 2): 538 mm^3
- Tumor volume (1 mpk iv 1 h infusion qw*2 weeks, day 4): 539 mm^3
- Tumor volume (1 mpk iv 1 h infusion qw*2 weeks, day 6): 467 mm^3
- Tumor volume (1 mpk iv 1 h infusion qw*2 weeks, day 8): 399 mm^3
- Tumor volume (1 mpk iv 1 h infusion qw*2 weeks, day 10): 330 mm^3
- Tumor volume (1 mpk iv 1 h infusion qw*2 weeks, day 13): 260 mm^3
- Tumor volume (1 mpk iv 1 h infusion qw*2 weeks, day 15): 213 mm^3
- T/C [1]: 10.3%
- TGI [1]: 116.4%
- Tumor volume [1]: 209 mm^3 and 209 ± 27 mm^3
- Tumor volume (1 mpk iv qw*2 weeks, day 0): 464 mm^3
- Tumor volume (1 mpk iv qw*2 weeks, day 2): 572 mm^3
- Tumor volume (1 mpk iv qw*2 weeks, day 4): 529 mm^3
- Tumor volume (1 mpk iv qw*2 weeks, day 6): 496 mm^3
- Tumor volume (1 mpk iv qw*2 weeks, day 8): 427 mm^3
- Tumor volume (1 mpk iv qw*2 weeks, day 10): 361 mm^3
- Tumor volume (1 mpk iv qw*2 weeks, day 13): 269 mm^3
- Tumor volume (1 mpk iv qw*2 weeks, day 15): 239 mm^3
- T/C (1 mpk iv qw*2 weeks, day 17): 10.6%
- TGI (1 mpk iv qw*2 weeks, day 17): 116.0%
- Tumor volume (1 mpk iv qw*2 weeks, day 17): 214 mm^3 and 214 ± 33 mm^3
- Tumor volume (1 mpk iv qw*4 weeks, day 0): 463 mm^3
- Tumor volume (1 mpk iv qw*4 weeks, day 2): 610 mm^3
- Tumor volume (1 mpk iv qw*4 weeks, day 4): 579 mm^3
- Tumor volume (1 mpk iv qw*4 weeks, day 6): 538 mm^3
- Tumor volume (1 mpk iv qw*4 weeks, day 8): 476 mm^3
- Tumor volume (1 mpk iv qw*4 weeks, day 10): 408 mm^3
- Tumor volume (1 mpk iv qw*4 weeks, day 13): 341 mm^3
- Tumor volume (1 mpk iv qw*4 weeks, day 15): 299 mm^3
- T/C (1 mpk iv qw*4 weeks, day 17): 14.5%
- TGI (1 mpk iv qw*4 weeks, day 17): 111%
- Tumor volume (1 mpk iv qw*4 weeks, day 17): 282 mm^3 and 293 mm^3 and 293 ± 66 mm^3
- Tumor volume (1 mpk sc 24 h minipump qw*2 weeks, day 0): 464 mm^3
- Tumor volume (1 mpk sc 24 h minipump qw*2 weeks, day 2): 517 mm^3
- Tumor volume (1 mpk sc 24 h minipump qw*2 weeks, day 4): 64 mm^3
- Tumor volume (1 mpk sc 24 h minipump qw*2 weeks, day 6): 480 mm^3
- Tumor volume (1 mpk sc 24 h minipump qw*2 weeks, day 8): 443 mm^3
- Tumor volume (1 mpk sc 24 h minipump qw*2 weeks, day 10): 393 mm^3
- Tumor volume (1 mpk sc 24 h minipump qw*2 weeks, day 13): 298 mm^3
- Tumor volume (1 mpk sc 24 h minipump qw*2 weeks, day 15): 249 mm^3
- T/C [2]: 11.1%
- TGI [2]: 115.5%
- Tumor volume [2]: 223 mm^3 and 223 ± 46 mm^3
- Tumor volume (3 mpk iv qw*4 weeks, day 0): 464 mm^3
- Tumor volume (3 mpk iv qw*4 weeks, day 2): 566 mm^3
- Tumor volume (3 mpk iv qw*4 weeks, day 4): 526 mm^3
- Tumor volume (3 mpk iv qw*4 weeks, day 6): 462 mm^3
- Tumor volume (3 mpk iv qw*4 weeks, day 8): 377 mm^3
- Tumor volume (3 mpk iv qw*4 weeks, day 10): 320 mm^3
- Tumor volume (3 mpk iv qw*4 weeks, day 13): 249 mm^3
- Tumor volume (3 mpk iv qw*4 weeks, day 15): 243 mm^3
- T/C (3 mpk iv qw*4 weeks, day 17): 10.2%
- TGI (3 mpk iv qw*4 weeks, day 17): 116.7%
- Tumor volume (3 mpk iv qw*4 weeks, day 17): 205 mm^3 and 205 ± 14 mm^3
